Measurements reported in ChEMBL document CHEMBL1275548, “Interspecies recombination occurs frequently in quinolone resistance-determining regions of clinical isolates of Streptococcus pyogenes” (2008).

Tested on: Streptococcus pyogenes
Assay: Antibacterial activity against Streptococcus pyogenes clinical isolate by agar dilution method

Q: With `O=C(O)c1cn(C2CC2)c2cc(N3CCNCC3)c(F)cc2c1=O` [CIPROFLOXACIN] as the molecule, how does the MIC read?
A: Its MIC is no less than 2 µg/mL.
